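Exposure lasted 48 hours, with cells grown in 96-well plates and compounds tested at five concentrations. GI50 marks 50% less growth.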 Activity calls are given as the source filed them. Cut-off read from the data, not from the text of the source: active = GI50 up to about 1.1 µM and inactive = higher.
How the values were obtained:
Assay in all cases: growth of human tumour cells (NCI), 48 h
M14 = tested on: M14
MDA-MB-435 = tested on: MDA-MB-435
NCI-H460 = tested on: NCI-H460
RXF 393 = tested on: RXF 393
HCC 2998 = tested on: HCC 2998
MDA-N = tested on: MDA-N
A549 = tested on: A549
IGROV-1 = tested on: IGROV-1
UACC-257 = tested on: UACC-257
SK-MEL-28 = tested on: SK-MEL-28
Hs-578T = tested on: Hs-578T
BT-549 = tested on: BT-549
SF-268 = tested on: SF-268
HOP-62 = tested on: HOP-62
HCT-15 = tested on: HCT-15
OVCAR-3 = tested on: OVCAR-3
CCRF-CEM = tested on: CCRF-CEM
SK-MEL-5 = tested on: SK-MEL-5
UACC-62 = tested on: UACC-62
TK-10 = tested on: TK-10
LOX IMVI = tested on: LOX IMVI
PC-3 = tested on: PC-3
OVCAR-8 = tested on: OVCAR-8
T47D = tested on: T47D
NCI-H522 = tested on: NCI-H522
COLO 205 = tested on: COLO 205
A498 = tested on: A498
SK-OV-3 = tested on: SK-OV-3
EKVX = tested on: EKVX
NCI-H23 = tested on: NCI-H23
OVCAR-4 = tested on: OVCAR-4
Malme-3M = tested on: Malme-3M
SNB-19 = tested on: SNB-19
KM12 = tested on: KM12
SNB-75 = tested on: SNB-75
DU-145 = tested on: DU-145
SK-MEL-2 = tested on: SK-MEL-2
HT-29 = tested on: HT-29
SW-620 = tested on: SW-620
CAKI-1 = tested on: CAKI-1
SF-539 = tested on: SF-539
SN12C = tested on: SN12C
U-251 = tested on: U-251
K562 = tested on: K562
RPMI-8226 = tested on: RPMI-8226
ACHN = tested on: ACHN
786-0 = tested on: 786-0
SF-295 = tested on: SF-295
NCI/ADR-RES = tested on: NCI/ADR-RES
NCI-H226 = tested on: NCI-H226
MDA-MB-231 = tested on: MDA-MB-231
MOLT-4 = tested on: MOLT-4
MCF7 = tested on: MCF7
UO-31 = tested on: UO-31
HCT-116 = tested on: HCT-116
OVCAR-5 = tested on: OVCAR-5
HL-60 = tested on: HL-60
HOP-92 = tested on: HOP-92

## CCOC(=O)C1(C/C=C\CBr)CCCCCCCCCCC1=O (configuration not stated)
M14
  GI50: 15.7 µM (inactive)
MDA-MB-435
  GI50: 12 µM (inactive)
NCI-H460
  GI50: 15.5 µM (inactive)
RXF 393
  GI50: 11.2 µM (inactive)
HCC 2998
  GI50: 16 µM (inactive)
MDA-N
  GI50: 11.9 µM (inactive)
A549
  GI50: 18 µM (inactive)
IGROV-1
  GI50: 2.94 µM (inactive)
UACC-257
  GI50: 15.2 µM (inactive)
SK-MEL-28
  GI50: 15.7 µM (inactive)
Hs-578T
  GI50: 20 µM (inactive)
BT-549
  GI50: 15.3 µM (inactive)
SF-268
  GI50: 11 µM (inactive)
HOP-62
  GI50: 18.2 µM (inactive)
HCT-15
  GI50: 16.7 µM
OVCAR-3
  GI50: 2.09 µM (inactive)
CCRF-CEM
  GI50: 5.69 µM (inactive)
SK-MEL-5
  GI50: 12.8 µM (inactive)
UACC-62
  GI50: 11.5 µM (inactive)
TK-10
  GI50: 8.69 µM (inactive)
LOX IMVI
  GI50: 0.428 µM (active)
PC-3
  GI50: 10.4 µM (inactive)
OVCAR-8
  GI50: 14.5 µM (inactive)
T47D
  GI50: 12.1 µM (inactive)
NCI-H522
  GI50: 0.497 µM (active)
COLO 205
  GI50: 17.5 µM (inactive)
A498
  GI50: 13.9 µM (inactive)
SK-OV-3
  GI50: 16.8 µM (inactive)
EKVX
  GI50: 14.9 µM (inactive)
NCI-H23
  GI50: 11.9 µM (inactive)
OVCAR-4
  GI50: 10.6 µM (inactive)
Malme-3M
  GI50: 8.22 µM (inactive)
SNB-19
  GI50: 14.3 µM (inactive)
KM12
  GI50: 13.2 µM (inactive)
SNB-75
  GI50: 12.4 µM (inactive)
DU-145
  GI50: 17.1 µM (inactive)
SK-MEL-2
  GI50: 15.3 µM (inactive)
HT-29
  GI50: 4.38 µM (inactive)
SW-620
  GI50: 13.5 µM (inactive)
CAKI-1
  GI50: 13.9 µM (inactive)
SF-539
  GI50: 3.43 µM (inactive)
SN12C
  GI50: 12.6 µM (inactive)
U-251
  GI50: 7.01 µM (inactive)
K562
  GI50: 3.95 µM (inactive)
RPMI-8226
  GI50: 2.81 µM (inactive)
ACHN
  GI50: 15.6 µM (inactive)
786-0
  GI50: 6.34 µM (inactive)
SF-295
  GI50: 16.9 µM (inactive)
NCI/ADR-RES
  GI50: 16.7 µM (inactive)
NCI-H226
  GI50: 2.88 µM (inactive)
MDA-MB-231
  GI50: 3.36 µM (inactive)
MOLT-4
  GI50: 3.56 µM (inactive)
MCF7
  GI50: 12.9 µM (inactive)
UO-31
  GI50: 2.9 µM (inactive)
HCT-116
  GI50: 17 µM (inactive)
OVCAR-5
  GI50: 16.2 µM (inactive)

## Cc1nc(C)c(C(=O)NNC(=O)c2ccccc2)cc1C(=O)NNC(=O)c1ccccc1
M14
  GI50: > 100 µM (inactive)
MDA-MB-435
  GI50: > 100 µM (inactive)
NCI-H460
  GI50: > 100 µM (inactive)
RXF 393
  GI50: > 100 µM (inactive)
HCC 2998
  GI50: > 100 µM (inactive)
MDA-N
  GI50: > 100 µM (inactive)
A549
  GI50: > 100 µM (inactive)
IGROV-1
  GI50: > 10 µM (inactive)
UACC-257
  GI50: > 100 µM (inactive)
Hs-578T
  GI50: > 100 µM (inactive)
BT-549
  GI50: > 100 µM (inactive)
SF-268
  GI50: > 100 µM (inactive)
HL-60
  GI50: > 100 µM (inactive)
HOP-62
  GI50: > 100 µM (inactive)
HCT-15
  GI50: > 100 µM
OVCAR-3
  GI50: > 100 µM (inactive)
CCRF-CEM
  GI50: > 100 µM (inactive)
SK-MEL-5
  GI50: > 100 µM (inactive)
UACC-62
  GI50: > 100 µM (inactive)
TK-10
  GI50: > 100 µM (inactive)
LOX IMVI
  GI50: > 100 µM (inactive)
PC-3
  GI50: > 100 µM (inactive)
OVCAR-8
  GI50: > 100 µM (inactive)
T47D
  GI50: > 100 µM (inactive)
NCI-H522
  GI50: > 100 µM (inactive)
COLO 205
  GI50: > 100 µM (inactive)
A498
  GI50: > 100 µM (inactive)
SK-OV-3
  GI50: > 100 µM (inactive)
EKVX
  GI50: > 10 µM (inactive)
HOP-92
  GI50: > 100 µM (inactive)
NCI-H23
  GI50: > 100 µM (inactive)
OVCAR-4
  GI50: > 100 µM (inactive)
SNB-19
  GI50: > 100 µM (inactive)
KM12
  GI50: > 10 µM (inactive)
SNB-75
  GI50: > 10 µM (inactive)
DU-145
  GI50: > 100 µM (inactive)
SK-MEL-2
  GI50: > 100 µM (inactive)
HT-29
  GI50: > 100 µM (inactive)
SW-620
  GI50: > 100 µM (inactive)
CAKI-1
  GI50: > 100 µM (inactive)
SF-539
  GI50: > 100 µM (inactive)
SN12C
  GI50: > 100 µM (inactive)
U-251
  GI50: > 100 µM (inactive)
K562
  GI50: > 100 µM (inactive)
RPMI-8226
  GI50: > 100 µM (inactive)
ACHN
  GI50: > 100 µM (inactive)
786-0
  GI50: > 100 µM (inactive)
SF-295
  GI50: > 100 µM (inactive)
NCI/ADR-RES
  GI50: > 100 µM (inactive)
NCI-H226
  GI50: > 100 µM (inactive)
MDA-MB-231
  GI50: > 100 µM (inactive)
MOLT-4
  GI50: > 100 µM (inactive)
MCF7
  GI50: > 100 µM (inactive)
UO-31
  GI50: > 100 µM (inactive)
HCT-116
  GI50: > 100 µM (inactive)
OVCAR-5
  GI50: > 100 µM (inactive)

From ChEMBL document CHEMBL1201862, “PubChem BioAssay data set” (2004)
